Values of other authors as cited in article PMC3261373 (Bioconjugate Chemistry, 2011).

Legend:
[1] = test system: angiogenesis and tumor growth; conditions: in words
αvβ3-integrin = conditions: in vivo blocking studies

Compound: CC(C)C[C@H](NC(=O)[C@@H](O)[C@H](N)Cc1ccccc1)C(=O)O [bestatin]
- mode of APN inhibition (APN; in words): slow-binding competitive inhibitor
- effect on angiogenesis and tumor growth [1]: suppressed angiogenesis and tumor growth

Compound: cyclic CisoDGRC [^99mTc-labeled cyclic CisoDGRC conjugate]
- binding to tumors and tissues expressing αvβ3-integrin (αvβ3-integrin): selective binding

Compound: cyclic CNGRC [cyclic CNGRC peptide]
- binding affinity to APN (APN; enzyme inhibition studies): moderate binding affinity
- binding to APN/CD13 (APN; in words): known to bind APN/CD13
